Compound: CCn1c(-c2nonc2N)nc2c(C#CC(C)(C)O)ncc(OC[C@H]3CCCNC3)c21 + CCNC(=O)c1noc(-c2cc(C(C)C)c(O)cc2O)c1-c1ccc(CN2CCOCC2)cc1 [Luminespib] (partner 0.01 µM)
Assay: relative viability (nuclei count vs DMSO), 5 days (fraction); higher = more cells survive
Details: first compound 0.01 µM
Outline: (§1)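 Lung cancer cell lines, seeded in 1536-well plates, were treated the following day by pin tool with a single drug or with five library-drug doses (not always all listed) in √10 steps on top of a fixed anchor-drug dose. Cells were fixed and nuclei stained in one step after 5 days, and nuclei were counted. Relative viability is the nuclei count for treated wells divided by that for vehicle wells, reported as medians of duplicate plates.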

| Cell Line | relative viability |
| --- | --- |
| NCI-H1915 | 0.713 |
| HCC-827 | 0.533 |
| LXF-289 | 0.604 |
| NCI-H23 | 0.235 |
| NCI-H647 | 0.327 |
| CAL-12T | 0.234 |
| NCI-H1651 | 0.969 |
| EPLC-272H | 0.228 |
| NCI-H2228 | 0.0991 |
| NCI-H1792 | 0.593 |
| NCI-H1355 | 0.716 |
| NCI-H3122 | 0.0785 |
| NCI-H1437 | 1.07 |
| NCI-H1755 | 0.455 |
| NCI-H2023 | 0.636 |
| HCC-15 | 0.291 |

Same assay, conditions: first compound 0.03162 µM

| Cell Line | relative viability |
| --- | --- |
| NCI-H322M | 0.847 |
| LCLC-97TM1 | 0.914 |
| NCI-H2009 | 0.981 |
| A-427 | 1.03 |
| NCI-H441 | 0.312 |
| NCI-H661 | 0.95 |
| NCI-H1734 | 0.194 |
| NCI-H460 | 0.0313 |
| NCI-H2347 | 0.0975 |
| SK-LU-1 | 0.2 |
| NCI-H1395 | 0.705 |
| 201T | 1.03 |
| NCI-H1915 | 0.898 |
| HCC-827 | 0.895 |
| LXF-289 | 0.822 |
| NCI-H23 | 0.202 |
| NCI-H647 | 0.177 |
| CAL-12T | 1.07 |
| NCI-H1651 | 0.875 |
| EPLC-272H | 0.141 |
| NCI-H2228 | 0.159 |
| NCI-H1355 | 0.688 |
| NCI-H3122 | 0.0949 |
| NCI-H1437 | 1.13 |
| NCI-H1755 | 0.519 |
| NCI-H2023 | 0.981 |
| HCC-15 | 0.26 |

Same assay, conditions: first compound 0.1 µM

| Cell Line | relative viability |
| --- | --- |
| NCI-H322M | 0.855 |
| LCLC-97TM1 | 0.609 |
| NCI-H2009 | 1.06 |
| A-427 | 0.77 |
| NCI-H441 | 0.349 |
| NCI-H661 | 0.947 |
| NCI-H1734 | 0.177 |
| NCI-H460 | 0.0273 |
| SK-LU-1 | 0.211 |
| NCI-H1395 | 0.546 |
| 201T | 1.02 |
| NCI-H1915 | 0.741 |
| HCC-827 | 0.729 |
| LXF-289 | 0.627 |
| NCI-H23 | 0.242 |
| NCI-H647 | 0.203 |
| CAL-12T | 0.431 |
| NCI-H1651 | 0.811 |
| EPLC-272H | 0.311 |
| NCI-H2228 | 0.145 |
| NCI-H1792 | 0.566 |
| NCI-H1355 | 0.746 |
| NCI-H3122 | 0.101 |
| NCI-H1437 | 1.21 |
| NCI-H1755 | 0.556 |
| NCI-H2023 | 0.664 |
| HCC-15 | 0.468 |

Same assay, conditions: first compound 0.3162 µM

| Cell Line | relative viability |
| --- | --- |
| NCI-H322M | 0.665 |
| LCLC-97TM1 | 0.658 |
| NCI-H2009 | 0.986 |
| A-427 | 0.867 |
| NCI-H441 | 0.379 |
| NCI-H661 | 0.965 |
| NCI-H1734 | 0.145 |
| NCI-H460 | 0.031 |
| NCI-H2347 | 0.516 |
| SK-LU-1 | 0.22 |
| NCI-H1395 | 0.596 |
| 201T | 1.03 |
| NCI-H1915 | 0.755 |
| HCC-827 | 0.476 |
| LXF-289 | 0.617 |
| NCI-H23 | 0.219 |
| NCI-H647 | 0.127 |
| CAL-12T | 0.362 |
| NCI-H1651 | 0.755 |
| EPLC-272H | 0.262 |
| NCI-H2228 | 0.113 |
| NCI-H1792 | 0.416 |
| NCI-H1355 | 0.695 |
| NCI-H3122 | 0.072 |
| NCI-H1437 | 1.09 |
| NCI-H1755 | 0.513 |
| NCI-H2023 | 0.67 |
| HCC-15 | 0.345 |

Same assay, conditions: first compound 1 µM

| Cell Line | relative viability |
| --- | --- |
| NCI-H322M | 0.682 |
| LCLC-97TM1 | 0.741 |
| NCI-H2009 | 0.983 |
| A-427 | 0.946 |
| NCI-H441 | 0.367 |
| NCI-H661 | 0.995 |
| NCI-H1734 | 0.219 |
| NCI-H460 | 0.0375 |
| NCI-H2347 | 0.31 |
| SK-LU-1 | 0.215 |
| NCI-H1395 | 0.695 |
| 201T | 1.03 |
| NCI-H1915 | 0.724 |
| HCC-827 | 0.633 |
| LXF-289 | 0.701 |
| NCI-H23 | 0.237 |
| NCI-H647 | 0.193 |
| CAL-12T | 0.427 |
| NCI-H1651 | 0.953 |
| EPLC-272H | 0.309 |
| NCI-H2228 | 0.123 |
| NCI-H1792 | 0.47 |
| NCI-H1355 | 0.693 |
| NCI-H3122 | 0.0984 |
| NCI-H1437 | 1.17 |
| NCI-H1755 | 0.423 |
| NCI-H2023 | 0.498 |
| HCC-15 | 0.268 |

Compound: CCn1c(-c2nonc2N)nc2c(C#CC(C)(C)O)ncc(OC[C@H]3CCCNC3)c21 + C[C@]1(O)C[C@@H](c2nc(-c3ccc4ccc(-c5ccccc5)nc4c3)c3c(N)nccn32)C1 [Linsitinib] (partner 1 µM)
Assay: as above
Details: first compound 0.01 µM
Outline: as §1

| Cell Line | relative viability |
| --- | --- |
| NCI-H322M | 0.976 |
| NCI-H2009 | 1.15 |
| A-427 | 1.13 |
| NCI-H441 | 0.592 |
| NCI-H661 | 0.566 |
| NCI-H1734 | 0.872 |
| NCI-H460 | 0.747 |
| NCI-H2347 | 1.05 |
| SK-LU-1 | 1.06 |
| NCI-H1395 | 0.997 |
| 201T | 1.05 |
| NCI-H1915 | 1.08 |
| HCC-827 | 0.879 |
| LXF-289 | 0.971 |
| NCI-H23 | 0.542 |
| NCI-H647 | 1.25 |
| CAL-12T | 0.878 |
| NCI-H1651 | 0.926 |
| EPLC-272H | 1.24 |
| NCI-H2228 | 0.682 |
| NCI-H1792 | 0.523 |
| NCI-H1355 | 0.899 |
| NCI-H3122 | 1.05 |
| NCI-H1437 | 0.948 |
| NCI-H1755 | 1.04 |
| NCI-H2023 | 0.683 |
| HCC-15 | 0.798 |

Same assay, conditions: first compound 0.03162 µM

| Cell Line | relative viability |
| --- | --- |
| NCI-H322M | 0.988 |
| LCLC-97TM1 | 0.159 |
| NCI-H2009 | 1.19 |
| A-427 | 1.05 |
| NCI-H441 | 0.556 |
| NCI-H661 | 0.658 |
| NCI-H1734 | 0.879 |
| NCI-H460 | 0.752 |
| NCI-H2347 | 0.983 |
| SK-LU-1 | 1.23 |
| NCI-H1395 | 0.972 |
| 201T | 1.1 |
| NCI-H1915 | 1.1 |
| HCC-827 | 1.03 |
| LXF-289 | 0.945 |
| NCI-H23 | 0.722 |
| NCI-H647 | 1.36 |
| CAL-12T | 0.784 |
| NCI-H1651 | 0.941 |
| EPLC-272H | 1.21 |
| NCI-H2228 | 0.65 |
| NCI-H1792 | 0.567 |
| NCI-H1355 | 0.804 |
| NCI-H3122 | 0.944 |
| NCI-H1437 | 1.05 |
| NCI-H1755 | 1.02 |
| NCI-H2023 | 0.664 |
| HCC-15 | 0.932 |

Same assay, conditions: first compound 0.1 µM

| Cell Line | relative viability |
| --- | --- |
| NCI-H322M | 0.942 |
| LCLC-97TM1 | 0.169 |
| NCI-H2009 | 1.27 |
| A-427 | 1.15 |
| NCI-H441 | 0.67 |
| NCI-H661 | 0.508 |
| NCI-H1734 | 0.782 |
| NCI-H460 | 0.687 |
| NCI-H2347 | 0.958 |
| SK-LU-1 | 1.22 |
| NCI-H1395 | 1.12 |
| 201T | 0.986 |
| NCI-H1915 | 1.05 |
| HCC-827 | 0.97 |
| LXF-289 | 0.96 |
| NCI-H23 | 0.619 |
| NCI-H647 | 1.21 |
| CAL-12T | 0.819 |
| NCI-H1651 | 0.919 |
| EPLC-272H | 1.03 |
| NCI-H2228 | 0.645 |
| NCI-H1792 | 0.464 |
| NCI-H1355 | 0.877 |
| NCI-H3122 | 0.972 |
| NCI-H1437 | 1.04 |
| NCI-H1755 | 1 |
| NCI-H2023 | 0.708 |
| HCC-15 | 0.856 |

Same assay, conditions: first compound 0.3162 µM

| Cell Line | relative viability |
| --- | --- |
| NCI-H322M | 0.89 |
| LCLC-97TM1 | 0.229 |
| NCI-H2009 | 1.1 |
| A-427 | 1.1 |
| NCI-H441 | 0.592 |
| NCI-H661 | 0.546 |
| NCI-H1734 | 0.817 |
| NCI-H460 | 0.774 |
| NCI-H2347 | 0.904 |
| SK-LU-1 | 1.19 |
| NCI-H1395 | 1 |
| 201T | 1.03 |
| NCI-H1915 | 1.12 |
| HCC-827 | 0.942 |
| LXF-289 | 0.882 |
| NCI-H23 | 0.491 |
| NCI-H647 | 1.16 |
| CAL-12T | 0.802 |
| NCI-H1651 | 0.871 |
| EPLC-272H | 1.17 |
| NCI-H2228 | 0.585 |
| NCI-H1792 | 0.491 |
| NCI-H1355 | 0.685 |
| NCI-H3122 | 1.01 |
| NCI-H1437 | 1.01 |
| NCI-H1755 | 0.954 |
| NCI-H2023 | 0.446 |
| HCC-15 | 0.816 |

Same assay, conditions: first compound 1 µM

| Cell Line | relative viability |
| --- | --- |
| NCI-H322M | 0.909 |
| LCLC-97TM1 | 0.21 |
| NCI-H2009 | 1.19 |
| A-427 | 1.13 |
| NCI-H441 | 0.657 |
| NCI-H661 | 0.576 |
| NCI-H1734 | 0.884 |
| NCI-H460 | 0.64 |
| NCI-H2347 | 0.991 |
| SK-LU-1 | 1.09 |
| NCI-H1395 | 0.904 |
| 201T | 1.02 |
| NCI-H1915 | 1.08 |
| HCC-827 | 0.962 |
| LXF-289 | 0.951 |
| NCI-H23 | 0.611 |
| NCI-H647 | 1.01 |
| CAL-12T | 0.715 |
| NCI-H1651 | 0.958 |
| EPLC-272H | 1.39 |
| NCI-H2228 | 0.475 |
| NCI-H1792 | 0.461 |
| NCI-H1355 | 0.869 |
| NCI-H3122 | 1.03 |
| NCI-H1437 | 0.956 |
| NCI-H1755 | 1.01 |
| NCI-H2023 | 0.569 |
| HCC-15 | 0.828 |

— the supplement of paper PMC10307832
